Laboratory results reported in PubChem BioAssay (NCI).
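Following 48 hours of exposure in 96-well plates, responses at five concentrations were used to interpolate endpoints linearly. TGI: total growth inhibition.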

What was measured:
Assay in all cases: NCI-60 cell line screen, 48 h
HOP-62 NSCLC = tested on: HOP-62 NSCLC
UACC-62 melanoma = tested on: UACC-62 melanoma
M14 melanoma = tested on: M14 melanoma
SK-MEL-2 melanoma = tested on: SK-MEL-2 melanoma
MOLT-4 leukemia = tested on: MOLT-4 leukemia
IGROV1 ovarian = tested on: IGROV1 ovarian
HL-60(TB) leukemia = tested on: HL-60(TB) leukemia
LOX IMVI melanoma = tested on: LOX IMVI melanoma
RPMI-8226 leukemia = tested on: RPMI-8226 leukemia
OVCAR-8 ovarian = tested on: OVCAR-8 ovarian
RXF 393 renal = tested on: RXF 393 renal
OVCAR-5 ovarian = tested on: OVCAR-5 ovarian
NCI-H522 lung = tested on: NCI-H522 lung
UO-31 renal = tested on: UO-31 renal
MALME-3M melanoma = tested on: MALME-3M melanoma
HS 578T breast = tested on: HS 578T breast
SF-295 CNS = tested on: SF-295 CNS
MDA-MB-435 = tested on: MDA-MB-435

SMILES | TGI (HOP-62 NSCLC) [µM] | TGI (UACC-62 melanoma) [µM] | TGI (M14 melanoma) [µM] | TGI (SK-MEL-2 melanoma) [µM] | TGI (MOLT-4 leukemia) [µM] | TGI (IGROV1 ovarian) [µM] | TGI (HL-60(TB) leukemia) [µM] | TGI (LOX IMVI melanoma) [µM] | TGI (RPMI-8226 leukemia) [µM] | TGI (OVCAR-8 ovarian) [µM] | TGI (RXF 393 renal) [µM] | TGI (OVCAR-5 ovarian) [µM] | TGI (NCI-H522 lung) [µM] | TGI (UO-31 renal) [µM] | TGI (MALME-3M melanoma) [µM] | TGI (HS 578T breast) [µM] | TGI (SF-295 CNS) [µM] | TGI (MDA-MB-435) [µM]
COc1ccc(C2(O)c3ccccc3C(=O)N(C)C2(O)c2ccc(OC)cc2)cc1 (configuration not stated) | > 100 | > 100 | > 100 | > 100 | > 100 | > 100 | > 100 | > 100 | > 100 | > 100 | > 100 | > 100 | 74.9 | > 100 | > 100 | 29 | > 100 | 42.2
COc1ccc(C(=O)/C=C/c2cccnc2)cc1OC | 28.2 | 28.4 | 26.6 | 27.3 | 14.1 | 21.9 | 6.01 | 3.81 | – | 18.6 | 18.6 | 24.6 | 3.5 | 26.3 | 28.5 | 49.6 | 26.3 | 30.1
CN(C)CCn1c(=O)c2ccc3c4c(nn3CCN(C)C)c3cc(O)ccc3n(c1=O)c24 | 0.566 | 0.585 | 0.846 | 0.576 | 0.127 | – | 1.96 | 0.101 | 0.406 | 0.124 | 0.977 | 1.26 | 0.0292 | 0.675 | 0.982 | 0.373 | 0.271 | 0.641
Cn1c(=O)c2c(ncn2CCCCOc2ccc3c(c2)[n+]([O-])nc(N)[n+]3[O-])n(C)c1=O | > 100 | 42 | > 100 | > 100 | > 100 | 67.6 | > 100 | > 100 | > 100 | > 100 | 80.4 | – | > 100 | > 100 | > 100 | > 100 | > 100 | > 100
CCN(CC)C(=S)N=Nc1c(O)[nH]c2ccccc12 | 12.6 | 6.38 | 2.94 | 23.8 | 2.93 | 2.42 | 3.7 | 13.4 | 4.07 | 13 | 7.15 | 25.1 | 14.4 | – | 10.4 | 69.5 | 11.5 | 18.8
N#Cc1[nH]c(=O)n(-c2cccc3ccccc23)c1N | > 10 | > 10 | > 10 | > 10 | > 10 | > 10 | > 10 | > 10 | > 10 | > 10 | > 10 | > 10 | > 10 | – | > 10 | > 10 | > 10 | > 10
CCOc1cc2c(cc1OC(C)=O)C(=O)CC[C@H]1C3CC[C@H](OC(C)=O)[C@@]3(C)CC[C@H]21 (some centres not stated) | > 100 | > 100 | > 100 | > 100 | > 100 | – | > 100 | > 100 | > 100 | > 100 | > 100 | > 100 | > 100 | > 100 | > 100 | > 100 | > 100 | > 100
C=C1C(=O)O[C@H]2[C@H]3O[C@@H](C[C@@H]12)[C@@]1(C)CC[C@H](O1)C(C)=CCC[C@H]3C | 19.1 | 4.05 | 3.15 | 4.11 | – | 3.83 | 1.03 | 2.89 | 2.46 | 3.1 | 3.75 | 11.5 | 3.42 | 2.77 | 3.15 | 8.95 | 17.9 | 2.92
CCOC(=O)Nc1nn(C)c(=NCc2ccccc2)s1 | > 100 | > 100 | – | > 100 | > 100 | > 100 | > 100 | > 100 | > 100 | – | > 100 | > 100 | > 100 | > 100 | – | > 100 | > 100 | > 100
COC(C)(C)CCc1[nH]c2ccccc2c1CC(=O)NCCc1cncn1C | – | > 100 | > 100 | > 100 | > 100 | > 100 | > 100 | > 100 | > 100 | > 100 | > 100 | > 100 | > 100 | > 100 | > 100 | > 100 | – | > 100
CCCCCC[C@H]1C(=O)O[C@H](C)[C@H](NC(=O)c2cccc(NC=O)c2OC)C(=O)O[C@@H](C)[C@@H]1OC(=O)CC(C)C (tested in a mixture with another compound) | > 100 | > 100 | > 100 | > 100 | > 100 | – | > 100 | > 100 | > 100 | 30.4 | > 100 | > 100 | > 100 | > 100 | > 100 | > 100 | > 100 | > 100
O=c1oc(-c2ccccc2)c(-c2ccccc2)n1-c1ccc(Br)cc1 | > 100 | > 100 | > 100 | > 100 | > 100 | > 100 | > 100 | > 100 | – | > 100 | > 100 | > 100 | 62.7 | > 100 | – | > 100 | > 100 | > 100
CC1=N[C@](C)(C2CC3C=CC2C3=O)COC1=O (some centres not stated) | > 100 | > 100 | > 100 | – | > 100 | > 100 | > 100 | – | – | > 100 | > 100 | > 100 | > 100 | > 100 | > 100 | > 100 | > 100 | > 100
COC(=O)C1(Cc2ccc3c(c2)CCC3)Cc2ccc3c(c2C1)CCC3 (configuration not stated) | > 100 | > 100 | – | – | > 100 | 74.6 | > 100 | 32.9 | 46.9 | > 100 | 83.3 | – | 45.1 | 74 | 42 | 45 | 60.7 | 39
O=C1NC(=O)C(COCc2ccccc2)C2=C1SCCC2 (configuration not stated) | > 100 | – | > 100 | > 100 | > 100 | > 100 | > 100 | > 100 | > 100 | > 100 | > 100 | – | > 100 | > 100 | > 100 | > 100 | > 100 | > 100
c1ccc2cc(CNCCOCCOCCNCc3ccc4ccccc4c3)ccc2c1 | 4.01 | 3.54 | 3.89 | 3.65 | 4.49 | 3.22 | 4.07 | 3.06 | 4.31 | 3.77 | 3.52 | 4 | 3.44 | – | 3.9 | 3.74 | 3.11 | 3.81
Cc1cc2nc(-c3c(F)cccc3F)n(Cc3c(F)cccc3F)c2cc1C | 28.7 | – | 25.2 | 29.6 | 33.8 | 28.4 | 42.7 | 27.4 | 24 | 29.5 | 61 | 31.7 | 27.1 | 23.3 | 44 | 46.7 | 27.9 | 32.8
COC(=O)[C@@]12C(=O)C(C)C(=O)[C@]1(C)C(C)=C[C@H]1[C@]3(C=O)CC[C@H](OC(C)=O)C(C)(C)[C@H]3CC[C@@]12C (some centres not stated) | > 100 | > 100 | > 100 | > 100 | 69.1 | – | 52.3 | > 100 | > 100 | > 100 | > 100 | > 100 | > 100 | > 100 | > 100 | > 100 | > 100 | > 100
O=c1oc2c(ccc3ccccc32)cc1C1=CSC2=NCCN12 | > 100 | > 100 | > 100 | > 100 | > 100 | > 100 | > 100 | > 100 | > 100 | > 100 | > 100 | – | > 100 | > 100 | > 100 | > 100 | > 100 | > 100
COC(=O)CC(=O)Nc1sccc1S(=O)(=O)c1ccccc1 | – | > 100 | > 100 | > 100 | > 100 | > 100 | > 100 | – | > 100 | > 100 | > 100 | > 100 | > 100 | > 100 | > 100 | > 100 | > 100 | > 100
CC(C)C/C=C/C1=NN(c2cccc(S(=O)(=O)O)c2)C2(C1)SCC(=O)N2c1nc2ccccc2s1 (configuration not stated) | – | > 100 | > 100 | > 100 | > 100 | > 100 | 82 | 70 | 49.6 | > 100 | > 100 | > 100 | 60.2 | > 100 | > 100 | > 100 | – | 84.6
